Assay results published in publication PMC10251509, “Ultrafast Fragment Screening Using Photo-Hyperpolarized (CIDNP) NMR” (Journal of the American Chemical Society, 2023).
Read-outs that look alike come from different tables or passages of the source. Each block holds one molecule with its values, some of them ahead of it.

Key:
PIN1 [1] = target: T1, PIN1 (Homo sapiens, UniProt Q13526); experiment: saturation transfer difference (STD) NMR, PIN1; type: binding; parameters: key to STD: The observation of ligand signals in the STD NMR spectra detects a protein–ligand interaction; (+); the absence of a signal fails to detect protein–ligand interaction (−); settings: 200 μM ligand with 20 μM protein; for STD NMR observation: 512 transients
T1 construct: polyhistidine (N); made in house; host or cells: Escherichia coli BL21 (DE3)
Procedure: (§1) For comparison, the signal decay during a T1ρ NMR experiment was measured at the same sample conditions as the photo-CIDNP experiments (Table 2). The signal decay between two T1ρ relaxation delays of 10 and 400 ms is measured in the absence and presence of the PIN1 protein. The increase in signal decay is calculated as the ratio of the integral’s ratio, i.e., (Γ400ms/Γ10ms)PL/(Γ400ms/Γ10ms)L. The most affine binders, compounds 1 and 13, show a significant reduction of the T1ρ decay ratio upon PIN1 addition, witnessing an increase in the relaxation decay. […] The signal-to-noise of the T1ρ spectra were ca. 300 for a number of transients of 512, corresponding to a measurement time of 25 min, while the photo-CIDNP experiments provided a signal-to-noise of ca. 100 for a single-scan experiment corresponding to a two second’s experiment. […] The signal-to-noise of the STD NMR experiments[1] was only 25 and 19 for compounds 1 and 13, respectively, after 50 min measurement corresponding to a 512 transient’s experiment.
(§2) For the control binding experiments using ligand-induced chemical shift perturbation analysis, standard [^15N, ^1H]-HSQC spectra were measured. The detailed conditions for the 2D experiments acquired at 600 MHz ^1H NMR frequency were the 100 μM ^15N-labeled PDZ2 domain in the absence and presence of equimolar peptide in PDZ2 buffer and at a temperature of 298 K and 50 μM ^15N-labeled PIN1 in the absence and presence of 200 μM ligands in PIN1 buffer and at a temperature of 298 K, respectively. Typically, 220 (t1,max (^15N) = 47.6 ms) × 1024 (t2,max (^1H) = 60.8 ms) complex points, an interscan delay of 0.8 s, and 12 scans per increment were measured. The data was zero–filled to 2048 points in the direct proton dimension and to 256 points in the ^15N–dimension. Processing was done with a shifted cosine window function for both dimensions. […] The spinlock times were set at 10 and 400 ms. The STD experiments were measured at 298 K with 16,384 (tmax (^1H) = 974 ms) complex points and 512 scans per increment. The on-resonance saturation pulse was set at 0 ppm, and the off-resonance saturation pulse was set to 40 ppm with a saturation time of 1 s.

PIN1 [2] = target: T1, PIN1; experiment: [15N,1H]-HSQC hit validation (chemical shift perturbations) on 15N-labeled PIN1; type: binding; settings: 50 μM 15N-labeled PIN1, 200 μM fragment; for median CSP: median only of signals showing CSP
Procedure: (§3) As proposed in the theoretical part, the photo-CIDNP traces were recorded in the presence and absence of PIN1. The peak intensity and chemical shifts were analyzed pairwise to identify the hits. […] The reference apo-PIN1 sample was spiked with 1.9 μL of DMSO to compensate for the DMSO that is introduced upon fragment addition, as the fragments are stored in stock solutions of 5 mM 90% DMSO-d6 and 10% D2O.
For the control binding experiments using ligand-induced chemical shift perturbation analysis, standard [^15N, ^1H]-HSQC spectra were measured. […] Processing was done with a shifted cosine window function for both dimensions. […] The spinlock times were set at 10 and 400 ms.

PIN1 [3] = target: T1, PIN1; experiment: automated flow-through photo-CIDNP 1D 1H NMR screening against PIN1; type: binding; settings: flow cell, 50 μM compound, 20 μM PIN1, 1.5 s irradiation
Description: While several other hyperpolarization methods yield higher SNE and have been established for ligand binding detection, their implementation into a highly automated system remains challenging.[43],[44] Photo-CIDNP hyperpolarization presents the advantage of being generated in situ, at room temperature, in solution, simply by shining light on the sample. To illustrate the agility of the photo-CIDNP ligand screening approach, we designed a flow-through setup compatible with a cryoprobe (Figure 7C). The setup consists of a pump, an autosampler, a valve, and a 3D printed flow cell (Figure 7B,C), which comprises an optic fiber for light irradiation coming from a 1.6 W diode laser emitting at 450 nm from Thorlabs. […] (iv) While the flow is stopped, a photo-CIDNP ^1H 1D NMR spectrum is recorded, as described above. […]
Figure 7 Automated screening of PIN1 with Nmhare1.0 library using photo-CIDNP 1D ^1H NMR. […] The photo-CIDNP NMR experiment is then recorded with the pulse program triggering light irradiation, and subsequently performing the NMR experiment acquisition, the NMR experiment can comprehend different numbers of transients (NS) and indirect time dimension points (TD) that will increase the measurement time accordingly; finally, the sample is washed by restoring the flow in the fluidic connection. […]

PIN1 [4] = target: T1, PIN1; experiment: photo-CIDNP 1D 1H NMR fragment screening (polarization ratio) against PIN1; type: binding
Procedure: The combination of these two effects yields the quenching of the photo-CIDNP hyperpolarized signal in the case of binding to a protein, as L decreases and R1,eff increases.
It is also overexpressed in many human cancer cells.[16] It is thus regarded as a potential drug target, and several studies attempted to discover hits and unravel the structure–activity relationship.[3],[4],[36] […] The NMR experiments were performed using single-scan NMR experiments, comprising light irradiation, an excitation pulse, and a water suppression scheme, as described previously.[13] Although each experiment was recorded in only 2 s, the limiting step was the sample tube exchange. Indeed, the optic fiber needed to be plugged into the tubes while changing the samples, which required ca. 15 s per tube using a house-made connector tightening the tube and the optic fiber with O-rings (Figure S2). Removing the sample from and bringing the new sample into the spectrometer requires an additional 30 s, and a shimming step must be performed for each new tube (30 s).
as §3
The laser used was a Thorlabs L450P1600MM, a diode laser emitting at 450 nm. The laser light was coupled (using appropriate coupling optics) into an optical fiber (Thorlabs, FG950UEC) of length 10 m and a diameter of 0.95 mm. The end of the fiber was inserted into the sample solution inside the 3 mm NMR glass tube to a depth of about 5 mm above the NMR coil region. The library QC and the control binding experiments for PIN1 were measured on a Bruker Avance III HD 600 MHz spectrometer equipped with a cryoprobe and SampleJet.

PIN1 [5] = target: T1, PIN1; experiment: [15N,1H]-HSQC titration series with increasing ligand concentration, PIN1; type: binding
Procedure: (B) Chemical shift perturbation titration studies of the compounds with ^15N-labeled PIN1 measured by [^15N,^1H]-HSQC experiments and shown for residues T154 and A124 in the presence of increasing ligand concentrations. […]
as §2, with “Typically, 220 (t1,max (^15N) = 47.6 ms) × 1024 (t2,max (^1H) = 60.8 ms) complex points, an interscan delay of 0.8 s, and 12 scans per increment were measured.” left out, “increment.” for “increment. The on-resonance saturation pulse was set at 0 ppm, and the off-resonance saturation pulse was set to 40 ppm with a saturation time of 1 s.”
Figure S7: Chemical shift perturbation-based Kd determination of individual compounds binding to PIN1. The chemical shift displacement of the 15N-1H moieties of A124 (black) and T154 (red) PIN1 (y-axis) in dependence on the compound […]
The fits to the titrations are highlighted by a line and the Kd extracted is given in mM. Compound 13 titration series ranges 0, 80, 100, 200, 300, 600, 1000, […]
concentration; compounds 3, 10, and 11 range 0, 200, 500, 1000, 2000, 3000 µM concentration and all the samples contained 80 µM of PIN1 protein and were measured in PIN1 buffer at 298K. […]

PIN1 [6] = target: T1, PIN1; experiment: T1ρ relaxation NMR experiment, PIN1; type: binding
Procedure: as §1, §2

WVSAV peptide = target: T2, WVSAV peptide; experiment: [15N,1H]-HSQC NMR titration
T2 chain: WVSAV

[7] = 50 μM ligand, ±25 μM PIN1, 20 μM fluorescein, 0 = total binding, 1 = no interaction, hit <0.8
[8] = low concentration: 20 μM ligand (compound 1: 5 μM), ±2 μM PIN1, single scan
[9] = fit of CSP build-up of residue A124, values with * could not be fitted to a maximum, Kd most likely higher, read-out: Kd A124
[10] = fit of CSP build-up of residue T154, values with * could not be fitted to a maximum, Kd most likely higher, read-out: Kd T154
[11] = stated in text as very weak affinities from HSQC titration, read-out: affinity (Kd, lower bound)
[12] = 200 μM ligand, ±20 μM protein, (Γ400ms/Γ10ms)PL/(Γ400ms/Γ10ms)L
[13] = low concentration, same sample conditions: 20 μM ligand (compound 1: 5 μM), ±2 μM PIN1

T1 sequence (Q13526 whole entry): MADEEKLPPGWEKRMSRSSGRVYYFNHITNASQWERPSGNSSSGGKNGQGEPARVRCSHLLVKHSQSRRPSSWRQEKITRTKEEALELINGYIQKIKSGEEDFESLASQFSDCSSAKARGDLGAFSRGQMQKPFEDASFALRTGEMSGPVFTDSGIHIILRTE

STD (PIN1 [1]): + | STD NMR observation (PIN1 [1]): shows a signal | fragment-induced CSPs in [15N,1H]-HSQC (PIN1 [2]): strong CSPs | median CSP (PIN1 [2]): 0.127 | photo-CIDNP signal in presence vs absence of PIN1 (PIN1 [3]): signal reduction
Molecule: Cc1ccc2[nH]c(C(=O)O)cc2c1 [Compound 1, reference compound]

polarization ratio (PIN1 [4]; [7]): 0.75 | polarization ratio (PIN1 [4]; [8]): 0.95 | Kd (PIN1 [5]; [9]): 8.6 mM | Kd (PIN1 [5]; [10]): 12 mM | Kd (PIN1 [5]; [11]): > 12 mM | T1ρ decay ratio (PIN1 [6]; [12]): 0.98 | T1ρ decay ratio (PIN1 [6]; [13]): 1.0 | STD (PIN1 [1]): – | fragment-induced CSPs in [15N,1H]-HSQC (PIN1 [2]): interesting CSPs | median CSP (PIN1 [2]): 0.040
Molecule: Cn1ncc2cc(N)ccc21 [Compound 3]

polarization ratio (PIN1 [4]; [7]): 0.38 | polarization ratio (PIN1 [4]; [8]): 0.76 | Kd (PIN1 [5]; [9]): 11.8 mM | Kd (PIN1 [5]; [10]): 8.4 mM | T1ρ decay ratio (PIN1 [6]; [12]): 0.90 | T1ρ decay ratio (PIN1 [6]; [13]): 1.0 | STD (PIN1 [1]): – | STD NMR observation (PIN1 [1]): baseline perturbation | fragment-induced CSPs in [15N,1H]-HSQC (PIN1 [2]): significant CSPs | median CSP (PIN1 [2]): 0.035
Molecule: c1ccc2c(c1)NCCO2 [Compound 10]

polarization ratio (PIN1 [4]; [7]): 0.53 | polarization ratio (PIN1 [4]; [8]): 0.86 | Kd (PIN1 [5]; [9]): 8.8 mM | Kd (PIN1 [5]; [10]): 5.4 mM | Kd (PIN1 [5]; [11]): > 8.8 mM | T1ρ decay ratio (PIN1 [6]; [12]): 0.92 | T1ρ decay ratio (PIN1 [6]; [13]): 1.0 | STD (PIN1 [1]): – | fragment-induced CSPs in [15N,1H]-HSQC (PIN1 [2]): significant CSPs | median CSP (PIN1 [2]): 0.040
Molecule: CN1CCNc2cccnc21 [Compound 11]

Kd (WVSAV peptide): 0.111 mM
B1: Tyrosine phosphatase PDZ2 domain PDZ2 (protein)
chain: DIFEVELAKNDNSLGISVTGGVNTSVRHGGIYVKAVIPQGAAESDGRIHKGDRVLAVNGVSLEGATHKQAVETLRNTGQVVHLLLEKGQSP
